*1 amine or outer side, *2 acyl side, *3 side chain or, on linkers, in order; H or OH if unused. Where a SMILES comes first, the peptide text is derived from it. Bridges are numbered along the chain shown (N, C = ends). [ ]: non-standard residue; d: D form. NMehTyr = CN[C@@H](CCc1ccc(O)cc1)C(=O)O; hTyr = N[C@@H](CCc1ccc(O)cc1)C(=O)O; NMeA = CN[C@@H](C)C(=O)O; CO = O=C([*:1])[*:2]
Columns and labels:
[1] = test system: PP1 (from rabbit skeletal muscle); conditions: cited from earlier work; for PP1 inhibition reported (in words): PP1 from rabbit skeletal muscle
[2] = molecular target: T1, protein phosphatase 1 (Oryctolagus cuniculus, UniProt P62139); test: biochemical; type: biochemical; conditions: for PP1 inhibition (in words): acquired standards
T1 construct: purchased New England Biolabs

[3] = molecular target: T2, carboxypeptidase A (Bos taurus, UniProt P00730); test: Carboxypeptidase A inhibition assay; type: biochemical; conditions: acquired standards
T2 construct: purchased Sigma-Aldrich C9268
T2 sequence (P00730 111-419): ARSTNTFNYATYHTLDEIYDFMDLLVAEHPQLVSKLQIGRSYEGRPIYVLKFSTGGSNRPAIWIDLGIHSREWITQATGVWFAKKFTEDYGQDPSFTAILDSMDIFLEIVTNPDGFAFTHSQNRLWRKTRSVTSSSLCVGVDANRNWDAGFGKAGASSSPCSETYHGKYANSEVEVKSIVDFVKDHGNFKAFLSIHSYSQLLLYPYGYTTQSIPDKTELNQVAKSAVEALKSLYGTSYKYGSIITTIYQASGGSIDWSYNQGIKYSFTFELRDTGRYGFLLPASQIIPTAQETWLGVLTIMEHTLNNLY
From the text: The following reagents used for enzymatic assays were purchased from Sigma-Aldrich: trypsin (product number T0303), thrombin bovine plasma (T4648), elastase (E0258), carboxypeptidase A (C9268), aprotinine (A6103), N-p-tosyl-Gly-Pro-Lys-p-nitroanilide acetate salt (T6140), N-Succinyl-Gly-Gly-Phe-p-nitroanilide (S1899), 4-(2-Aminoethyl) benzenesulfonyl fluoride hydrochloride—AEBSF (A8456), elastatinal (E0881), N-Succinyl-Ala-Ala-Ala-p-nitroanilide (S4760), carboxypeptidase inhibitor—CPI (C0297), p-nitrophenyl phosphate disodium salt hexahydrate—p-NPP (71768), albumin bovine—BSA (A4503) and DL-dithiothreitol DTT (D0632).
APs were assayed for bioactivity by protein phosphatase 1, carboxypeptidase A, trypsin, elastase and thrombin inhibition assays as described in Mazur-Marzec et al. 2015 [50].

[4] = molecular target: T2, carboxypeptidase A; parameters: method as in PMID 11000037; conditions: read-out: CPA IC50 (converted); cited from earlier work

T1 sequence (P62139 whole entry): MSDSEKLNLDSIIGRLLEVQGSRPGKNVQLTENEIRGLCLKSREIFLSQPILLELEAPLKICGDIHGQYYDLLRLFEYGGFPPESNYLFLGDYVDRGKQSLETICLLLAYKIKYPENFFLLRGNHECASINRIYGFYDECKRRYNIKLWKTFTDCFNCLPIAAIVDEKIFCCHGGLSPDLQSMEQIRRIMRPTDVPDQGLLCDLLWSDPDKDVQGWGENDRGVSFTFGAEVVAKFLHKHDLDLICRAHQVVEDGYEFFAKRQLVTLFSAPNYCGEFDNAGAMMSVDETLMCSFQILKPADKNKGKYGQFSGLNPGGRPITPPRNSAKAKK

CC[C@H](C)[C@@H]1NC(=O)[C@H](NC(=O)N[C@@H](CCCNC(=N)N)C(=O)O)CCCCNC(=O)[C@H](Cc2ccccc2)NC(=O)[C@H](CCc2ccc(O)cc2)N(C)C(=O)[C@H](CCc2ccc(O)cc2)NC1=O [Osc C] ({Arg-CO}-[dK]I[hTyr][NMehTyr]F; lactam 1-C)
PP1 inhibition reported (in words) [1]: inhibition
IC50 [1]: 900 nM

CC[C@H](C)[C@@H]1NC(=O)[C@H](NC(=O)N[C@@H](Cc2ccc(O)cc2)C(=O)O)CCCCNC(=O)[C@H](Cc2ccccc2)NC(=O)[C@H](C)N(C)C(=O)[C@H](CCc2ccc(O)cc2)NC1=O [Oscillamide Y, Tyr + CO[Lys + Ile + Hty + MeAla + Phe]] ({Tyr-CO}-[dK]I[hTyr][NMeA]F; lactam 1-C)
IC50 [2]: 72.3 nM
PP1 inhibition (in words) [2]: showed inhibition
PP1 inhibition (in words) ([1]; at 100 μg/mL): no effect
Activity against CPA (in words) [3]: active

CC(C)C1NC(=O)C(NC(=O)NC(Cc2ccc(O)cc2)C(=O)O)CCCCNC(=O)C(Cc2ccccc2)NC(=O)C(C)N(C)C(=O)C(CCc2ccc(O)cc2)NC1=O (stereo not drawn) [Anabaenopeptin A, Tyr + CO[Lys + Val + Hty + MeAla + Phe]]
PP1 inhibition (in words) [2]: showed inhibition
PP1 inhibition reported (in words) [1]: inhibition

CC(C)[C@@H]1NC(=O)[C@H](NC(=O)N[C@@H](CCCNC(=N)N)C(=O)O)CCCCNC(=O)[C@H](Cc2ccccc2)NC(=O)[C@H](C)N(C)C(=O)[C@H](CCc2ccc(O)cc2)NC1=O [Anabaenopeptin B] ({Arg-CO}-[dK]V[hTyr][NMeA]F; lactam 1-C)
PP1 inhibition (in words) [2]: showed inhibition
PP1 inhibition reported (in words) [1]: inhibition

CSCC[C@@H]1NC(=O)[C@H](NC(=O)N[C@@H](CCCNC(=N)N)C(=O)O)CCCCNC(=O)[C@H](Cc2ccccc2)NC(=O)[C@H](C)N(C)C(=O)[C@H](CCc2ccc(O)cc2)NC1=O [oscillamide B] ({Arg-CO}-[dK]M[hTyr][NMeA]F; lactam 1-C)
PP1 inhibition reported (in words) [1]: inhibition

CC[C@H](C)[C@@H]1NC(=O)[C@H](NC(=O)N[C@@H](CCCNC(=N)N)C(=O)O)CCCCNC(=O)[C@H]([C@@H](C)CC)NC(=O)[C@H](CCc2ccc(O)cc2)N(C)C(=O)[C@H](CCc2ccc(O)cc2)NC1=O [anabaenopeptin H] ({Arg-CO}-[dK]I[hTyr][NMehTyr]I; lactam 1-C)
IC50 [4]: 3680 nM

CC[C@H](C)[C@H](NC(=O)N[C@@H]1CCCCNC(=O)[C@H](Cc2ccccc2)NC(=O)[C@H](C)N(C)C(=O)[C@H](CCc2ccc(O)cc2)NC(=O)[C@H](C(C)C)NC1=O)C(=O)O [Anabaenopeptin J] ({Ile-CO}-[dK]V[hTyr][NMeA]F; lactam 1-C)
PP1 inhibition (in words) [2]: showed inhibition
Activity against CPA (in words) [3]: active

CC[C@H](C)[C@@H]1NC(=O)[C@H](NC(=O)N[C@@H](CCCNC(=N)N)C(=O)O)CCCCNC(=O)[C@H](Cc2ccccc2)NC(=O)[C@H](C)N(C)C(=O)[C@H](CCc2ccc(O)cc2)NC1=O [anabaenopeptin F] ({Arg-CO}-[dK]I[hTyr][NMeA]F; lactam 1-C)
PP1 inhibition reported (in words) [1]: inhibition
